In EP0548834B1, “Stable hexahydrate of etoposide 4'-phosphate disodium salt” (Bristol-Myers Squibb Company, priority 1991, dated 1993):

How the values were obtained:
[1] = storage stability (potency / % remaining after storage); assay type: physicochemical
[2] = cited from earlier work

| SMILES | % Remaining ([1]; 9 weeks at 50°C, in sealed glass vials) [%] | potency remaining ([1]; 28 days at 37°C) [%] | % Remaining ([1]; 28 days at 80% Relative Humidity, 37°C) [%] | potency ([1]; storage for 63 days at 30°C) [%] | solubility in water [2] |
| --- | --- | --- | --- | --- | --- |
| COc1cc(C2c3cc4c(cc3C(OC3OC5COC(C)OC5C(O)C3O)C3COC(=O)C23)OCO4)cc(OC)c1OP(=O)([O-])[O-].O.O.O.O.O.O.[Na+].[Na+] (centres unmarked) [hexahydrate, Etoposide 4'-Phosphate Disodium salt hexahydrate] | 99.4 | 100 | 100.0 | > 99 | – |
| COc1cc([C@@H]2c3cc4c(cc3[C@@H](O[C@@H]3O[C@@H]5CO[C@@H](C)O[C@H]5[C@H](O)[C@H]3O)[C@H]3COC(=O)[C@H]23)OCO4)cc(OC)c1O [etoposide, Etoposide] | – | – | – | – | about 0.1 mg/ml |
